Laboratory results reported in patent US20240092784A1, “CONDENSED HETEROCYCLIC COMPOUND” (NISSAN CHEMICAL CORPORATION, priority 2020, published 2024).
Structures can show the parent of a compound that is named as a salt.

Target: human SPR (Homo sapiens (Human), UniProt P35270)
Assay: Evaluation Example 2: Measurement of human SPR inhibitory activity (seven concentrations, sepiapterin absorbance at 420 nm)
Format: biochemical
Settings: Evaluation Example 2, seven concentrations 0.14 nM to 100 nM, 240 minutes at room temperature, read-out: IC50
Outline: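 His-tagged full-length human SPR (1-261) was expressed in E. coli and the tag removed. Enzyme at 150 ng/mL in 100 mM Tris-HCl pH 7.5/0.01% BSA was mixed with compound (0.14–100 nM, seven points), 120 μM sepiapterin and 160 μM NADPH, both as added-solution concentrations. After 240 min at room temperature, remaining sepiapterin was read at 420 nm to give percent inhibition.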

Sequence of human SPR (P35270 whole entry): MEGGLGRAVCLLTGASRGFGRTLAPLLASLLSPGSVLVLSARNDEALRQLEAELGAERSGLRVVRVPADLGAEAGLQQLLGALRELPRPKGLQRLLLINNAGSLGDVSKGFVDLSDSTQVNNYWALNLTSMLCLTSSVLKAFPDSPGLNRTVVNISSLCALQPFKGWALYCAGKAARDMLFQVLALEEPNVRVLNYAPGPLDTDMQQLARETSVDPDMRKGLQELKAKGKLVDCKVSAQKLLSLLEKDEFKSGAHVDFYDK

| SMILES | IC50 [nM] |
| --- | --- |
| CC(C)Cn1c(=O)c(C(=O)NC2CC2)c(O)n2ncc(/C=C/C(=O)NCC(C)(C)O)c12 [compound 507, (E)-N-Cyclopropyl-7-hydroxy-3-(3-((2-hydroxy-2-methylpropyl)amino)-3-oxoprop-1-en-1-yl)-4-isobutyl-5-oxo-4,5-dihydropyrazolo[1,5-a]pyrimidine-6-carboxamide] | 1.13 |
| CC(C)Cn1c(=O)c(C(=O)NC2CC2)c(O)n2ncc(/C=C/C(=O)N3CCNCC3)c12 [compound 508, (E)-N-Cyclopropyl-7-hydroxy-4-isobutyl-5-oxo-3-(3-oxo-3-(piperazin-1-yl)prop-1-en-1-yl)-4,5-dihydropyrazolo[1,5-a]pyrimidine-6-carboxamide hydrochloride] | 0.77 |
| CC(C)Cn1c(=O)c(C(=O)NC2CC2)c(O)n2ncc(/C=C/C(=O)N(C)CC(F)(F)F)c12 [compound 509, (E)-N-Cyclopropyl-7-hydroxy-4-isobutyl-3-(3-(methyl(2,2,2-trifluoroethyl)amino)-3-oxoprop-1-en-1-yl)-5-oxo-4,5-dihydropyrazolo[1,5-a]pyrimidine-6-carboxamide] | 0.92 |
| CC(C)Cn1c(=O)c(C(=O)NC2CC2)c(O)n2ncc(/C=C/C(=O)N3CCC[C@H]3CO)c12 [compound 510, (S,E)-N-Cyclopropyl-7-hydroxy-3-(3-(2-(hydroxymethyl)pyrrolidin-1-yl)-3-oxoprop-1-en-1-yl)-4-isobutyl-5-oxo-4,5-dihydropyrazolo[1,5-a]pyrimidine-6-carboxamide] | 0.85 |
| CC(C)Cn1c(=O)c(C(=O)NC2CC2)c(O)n2ncc(/C=C/C(=O)N3CC4C(C3)C4(F)F)c12 (centres unmarked) [compound 511, (E)-N-Cyclopropyl-3-(3-(6,6-difluoro-3-azabicyclo[3.1.0]hexan-3-yl)-3-oxoprop-1-en-1-yl)-7-hydroxy-4-isobutyl-5-oxo-4,5-dihydropyrazolo[1,5-a]pyrimidine-6-carboxamide] | 1.07 |
| CC(C)Cn1c(=O)c(C(=O)NC2CC2)c(O)n2ncc(/C=C/C(=O)N3CC[C@H](C(N)=O)C3)c12 [compound 512, (S,E)-3-(3-(3-Carbamoylpyrrolidin-1-yl)-3-oxoprop-1-en-1-yl)-N-cyclopropyl-7-hydroxy-4-isobutyl-5-oxo-4,5-dihydropyrazolo[1,5-a]pyrimidine-6-carboxamide] | 0.69 |
| CC(C)Cn1c(=O)c(C(=O)NC2CC2)c(O)n2ncc(/C=C/C(=O)N3CC[C@@H](C(N)=O)C3)c12 [compound 513, (R,E)-3-(3-(3-Carbamoylpyrrolidin-1-yl)-3-oxoprop-1-en-1-yl)-N-cyclopropyl-7-hydroxy-4-isobutyl-5-oxo-4,5-dihydropyrazolo[1,5-a]pyrimidine-6-carboxamide] | 0.75 |
| CC(C)Cn1c(=O)c(C(=O)NC2CC2)c(O)n2ncc(/C=C/C(=O)N3CCS(=O)(=O)CC3)c12 [compound 514, (E)-N-Cyclopropyl-3-(3-(1,1-dioxidothiomorpholino)-3-oxoprop-1-en-1-yl)-7-hydroxy-4-isobutyl-5-oxo-4,5-dihydropyrazolo[1,5-a]pyrimidine-6-carboxamide] | 0.58 |
| CC(C)Cn1c(=O)c(C(=O)NC2CC2)c(O)n2ncc(/C=C/C(=O)N(C3CC3)C3CC3)c12 [compound 515, (E)-N-Cyclopropyl-3-(3-(dicyclopropylamino)-3-oxoprop-1-en-1-yl)-7-hydroxy-4-isobutyl-5-oxo-4,5-dihydropyrazolo[1,5-a]pyrimidine-6-carboxamide] | 0.84 |
| CC(C)Cn1c(=O)c(C(=O)NC2CC2)c(O)n2ncc(/C=C/C(=O)N3CCC(=O)C3)c12 [compound 516, (E)-N-Cyclopropyl-7-hydroxy-4-isobutyl-5-oxo-3-(3-oxo-3-(3-oxopyrrolidin-1-yl)prop-1-en-1-yl)-4,5-dihydropyrazolo[1,5-a]pyrimidine-6-carboxamide] | 0.61 |
| COCCNC(=O)/C=C/c1cnn2c(O)c(C(=O)NC3CC3)c(=O)n(CC(C)C)c12 [compound 517, (E)-N-Cyclopropyl-7-hydroxy-4-isobutyl-3-(3-((2-methoxyethyl)amino)-3-oxoprop-1-en-1-yl)-5-oxo-4,5-dihydropyrazolo[1,5-a]pyrimidine-6-carboxamide] | 0.57 |
